Measurements taken from publication PMC8200345 (American Journal of Clinical Dermatology, 2021).
Where two headings read alike, the source gives them in different places.

Tests used:
[1] = any of the three studies in atopic dermatitis
[2] = Phase II study; type: in vivo, human (adult patients with atopic dermatitis); conditions: Phase II SLR (QD only); log-transformed Ctrough week 4 vs API dose
[3] = human, in vivo
[4] = cited from earlier work
[5] = phase III studies combined
[6] = cited from earlier work; remark: listed apart in the source

For `N#CC[C@H](C1CCCC1)n1cc(-c2ncnc3[nH]ccc23)cn1` [ruxolitinib], the “Changes in hematological parameters” value [1] was “no clinically relevant changes”, the “Dose-PK model: exponent on API dose (regression slope), estimate” value [2] was 0.805 and the “Dose-PK model: exponent on API dose (regression slope), estimate” value [3] was 0.801. For the same compound, the “Dose-PK model: exponent on API dose, estimate” value [3] was 0.462, the “Dose-PK model: exponent on baseline IGA 3, estimate” value [3] was 0.322 and the “Dose-PK model: exponent on region = Europe, estimate” value [3] was 0.782. The “Mean Css as percent of the whole blood IC50 value” [3] was less than 15%, the “Bioavailability after oral dosing” value [4] was “near-complete” and the “Correlation between ruxolitinib Css quartiles and absolute neutrophil count” value [5] was “no correlation”. For the same compound, the “Average Css” value ([6]; 25 mg BID oral) was ~ 350 nM and the Maximum tolerated dose ([6]; oral, patients with myelofibrosis) was 25 mg BID.
